Measured values taken from patent US5773421A, “Antifungal fusacandins” (Abbott Laboratories, priority 1995, dated 1998).
In brackets after ≈: the same amount, converted by molar mass. Where two headings read alike, the source gives them in different places.

How the values were obtained:
[1] = tested on: Aspergillus niger ATCC 164; experiment: MIC by agar dilution method; type: cell-based; conditions: ATCC164; Table 6a; Aspergillus niger ATCC 164; agar dilution, 32° C., 20 hours; read-out: MIC
Procedure, shortened: (§1)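 Inhibition measured by agar dilution in Sabouraud dextrose agar, compounds diluted in MeOH. Inoculum: 10^4 cells per plate. Reading after 20 hours at 32° C.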

[2] = tested on: Candida albicans 579a; experiment: MIC by agar dilution method; type: cell-based; conditions: Table 6c; II Candida albicans 579a; agar dilution; read-out: MIC II
Procedure, shortened: as §1

[3] = tested on: Candida albicans ATCC 10231; experiment: MIC by agar dilution method; type: cell-based; conditions: ATCC10231; Table 6c; I Candida albicans ATCC 10231; agar dilution; read-out: MIC I
Procedure, shortened: as §1

[4] = tested on: Candida albicans ATCC 38247; experiment: MIC by agar dilution method; type: cell-based; conditions: ATCC38247; Table 6c; IV Candida albicans ATCC 38247; agar dilution; read-out: MIC IV
Procedure, shortened: as §1

[5] = tested on: Candida albicans ATCC 62376; experiment: MIC by agar dilution method; type: cell-based; conditions: ATCC62376; Table 6c; V Candida albicans ATCC 62376; agar dilution; read-out: MIC V
Procedure, shortened: as §1

[6] = tested on: Candida albicans ATCC 623; experiment: MIC by agar dilution method; type: cell-based; conditions: ATCC623; Table 6a; Candida albicans ATCC 623; agar dilution, 32° C., 20 hours; read-out: MIC
Procedure, shortened: as §1

[7] = tested on: Candida albicans ATCC 997; experiment: MIC by agar dilution method; type: cell-based; conditions: ATCC997; Table 6a; Candida albicans ATCC 997; agar dilution, 32° C., 20 hours; read-out: MIC
Procedure, shortened: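 Compounds serially diluted in MeOH were mixed into molten Sabouraud dextrose agar. Inocula came from 18 h cultures at 32° C suspended in phosphate buffered saline, adjusted to 10^4 cells. Plates were incubated at 32° C and read after 20 hours.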

[8] = tested on: Candida albicans CCH 442; experiment: MIC by agar dilution method; type: cell-based; conditions: CCH442, agar dilution
Procedure, shortened: as §1

[9] = tested on: Candida kefyr ATTC 288; experiment: MIC by agar dilution method; type: cell-based; conditions: Kluyveromyces marxianus, ATTC288; Table 6a; Candida kefyr ATTC 288; agar dilution, 32° C., 20 hours; read-out: MIC
Procedure, shortened: as §1

[10] = tested on: Candida tropicalis NRRL-Y-1; experiment: MIC by agar dilution method; type: cell-based; conditions: NRRLY1; Table 6a; Candida tropicalis NRRL-Y-1; agar dilution, 32° C., 20 hours; read-out: MIC
Procedure, shortened: as §1

[11] = tested on: Saccharomyces cereviseae GS1-36; experiment: MIC by agar dilution method; type: cell-based; conditions: GS136; Table 6a; Saccharomyces cereviseae GS1-36; agar dilution, 32° C., 20 hours; read-out: MIC
Procedure, shortened: as §1

[12] = tested on: Torulopsis glabrata ATCC 155; experiment: MIC by agar dilution method; type: cell-based; conditions: Nakaseomyces glabratus, ATCC155; Table 6a; Torulopsis glabrata ATCC 155; agar dilution, 32° C., 20 hours; read-out: MIC
Procedure, shortened: as §1

[13] = tested on: Nocardia asteroides ATTC 9970; experiment: MIC by agar dilution method; type: cell-based; conditions: ATTC9970; Table 6a; Nocardia asteroides ATTC 9970; agar dilution, 32° C., 20 hours; read-out: MIC
[14] = tested on: Streptococcus pyrogenes EES61; experiment: MIC by agar dilution method; type: cell-based; conditions: Table 6a; Streptococcus pyrogenes EES61; agar dilution, 32° C., 20 hours; read-out: MIC
[15] = tested on: Streptococcus bovis A-5169; experiment: MIC by agar dilution method; type: cell-based; conditions: Streptococcus equinus, A5169; Table 6a; Streptococcus bovis A-5169; agar dilution, 32° C., 20 hours; read-out: MIC
[16] = tested on: Staphylococcus aureus ATTC 6538p; experiment: MIC by agar dilution method; type: cell-based; conditions: ATTC6538P; Table 6a; Staphylococcus aureus ATTC 6538p; agar dilution, 32° C., 20 hours; read-out: MIC
[17] = MIC by broth dilution assay; type: cell-based; conditions: 144 h, Table 6d, no sorbitol, 2 ×10^5 organisms/mL
Protocol: Minimal inhibitory concentrations (MICs) were determined by a broth dilution assay described by Frost, D., Brandt, K., Cugier, D., and Goldman, R. in J. Antibiotics 48: 306-310 (1995) which is incorporated herein by reference. The final concentration of cells was 2 ×10^5 organisms/mL.

[18] = biological target: T1, glucan synthase (Candida albicans, UniProt O13428); experiment: Microtiter screen for inhibitors of (1,3)-β-glucan formation in cell free extracts; type: biochemical; conditions: C. albicans microsomes, [14C]UDP-Glc, water-insoluble β-glucan product on filter; read-out: IC50 (converted)
T1 construct: Microsomes isolated from mid-log phase grown yeast; endogenous in cells; host or cells: Candida albicans, mid-log phase yeast cells, microsomes
T1 sequence (O13428 1-1897): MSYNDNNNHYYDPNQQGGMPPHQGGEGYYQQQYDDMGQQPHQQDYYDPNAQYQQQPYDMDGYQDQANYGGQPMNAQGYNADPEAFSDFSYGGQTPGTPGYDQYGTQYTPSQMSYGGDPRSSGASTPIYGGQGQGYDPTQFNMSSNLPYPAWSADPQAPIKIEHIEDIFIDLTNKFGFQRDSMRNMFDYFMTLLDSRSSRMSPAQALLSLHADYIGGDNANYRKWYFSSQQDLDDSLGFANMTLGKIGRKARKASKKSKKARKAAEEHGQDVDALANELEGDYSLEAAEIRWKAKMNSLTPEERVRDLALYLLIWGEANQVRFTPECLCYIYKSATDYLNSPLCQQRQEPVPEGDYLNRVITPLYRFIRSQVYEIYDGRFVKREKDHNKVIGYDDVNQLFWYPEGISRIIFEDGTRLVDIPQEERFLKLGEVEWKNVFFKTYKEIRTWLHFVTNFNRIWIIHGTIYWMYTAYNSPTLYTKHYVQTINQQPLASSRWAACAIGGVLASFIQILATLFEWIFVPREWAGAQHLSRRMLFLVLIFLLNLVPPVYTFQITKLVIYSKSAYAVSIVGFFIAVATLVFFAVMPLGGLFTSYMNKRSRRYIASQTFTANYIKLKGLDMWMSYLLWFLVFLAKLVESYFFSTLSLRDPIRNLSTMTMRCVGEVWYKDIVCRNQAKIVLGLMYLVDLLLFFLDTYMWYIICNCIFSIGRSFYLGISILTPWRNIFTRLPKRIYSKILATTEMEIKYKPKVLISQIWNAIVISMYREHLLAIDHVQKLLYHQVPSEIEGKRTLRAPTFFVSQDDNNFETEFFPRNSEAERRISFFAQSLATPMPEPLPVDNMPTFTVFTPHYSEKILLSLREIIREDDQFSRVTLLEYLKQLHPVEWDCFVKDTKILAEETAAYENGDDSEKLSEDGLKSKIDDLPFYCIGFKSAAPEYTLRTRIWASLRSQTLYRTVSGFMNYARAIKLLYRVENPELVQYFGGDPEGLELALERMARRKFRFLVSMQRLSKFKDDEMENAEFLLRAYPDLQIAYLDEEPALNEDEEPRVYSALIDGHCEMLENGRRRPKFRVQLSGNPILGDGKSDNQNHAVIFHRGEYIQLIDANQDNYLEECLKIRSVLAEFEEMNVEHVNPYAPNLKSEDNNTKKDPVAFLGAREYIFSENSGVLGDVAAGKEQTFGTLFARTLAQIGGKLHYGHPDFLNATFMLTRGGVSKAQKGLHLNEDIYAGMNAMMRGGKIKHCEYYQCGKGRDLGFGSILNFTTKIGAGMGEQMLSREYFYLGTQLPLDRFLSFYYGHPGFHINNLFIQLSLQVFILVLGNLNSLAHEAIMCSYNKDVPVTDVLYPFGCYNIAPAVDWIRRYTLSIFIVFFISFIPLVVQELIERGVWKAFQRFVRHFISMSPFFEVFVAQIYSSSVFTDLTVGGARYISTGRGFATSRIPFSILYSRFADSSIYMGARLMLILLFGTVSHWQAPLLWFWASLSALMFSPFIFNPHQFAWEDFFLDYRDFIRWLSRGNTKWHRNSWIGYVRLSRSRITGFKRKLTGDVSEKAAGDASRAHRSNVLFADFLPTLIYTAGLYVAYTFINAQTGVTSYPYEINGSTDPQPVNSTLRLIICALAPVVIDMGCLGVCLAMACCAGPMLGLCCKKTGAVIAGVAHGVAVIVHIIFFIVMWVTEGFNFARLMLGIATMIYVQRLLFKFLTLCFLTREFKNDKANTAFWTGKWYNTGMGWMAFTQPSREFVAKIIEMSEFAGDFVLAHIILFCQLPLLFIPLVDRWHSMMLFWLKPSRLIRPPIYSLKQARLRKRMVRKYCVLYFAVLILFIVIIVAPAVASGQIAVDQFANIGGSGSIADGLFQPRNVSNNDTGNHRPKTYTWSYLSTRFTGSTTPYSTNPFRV
Excerpt: The fungal cell wall serves as a protective barrier and is essential for viability in a hypotonic environment. (1,3)-β-Glucan is a component of the Candida albicans cell wall, and the enzyme that biosynthesizes this polymer, glucan synthase, is not present in higher eukaryotes. (Glucan synthase is an integral plasma membrane protein that catalyzes polymerization of uridine diphosphate-glucose (UDP-Glc) into β-glucan.) Accordingly, glucan synthase represents an ideal target for the development of antifungal agents.
A microtiter screen was established to detect inhibitors of (1 ,3)-β-glucan formation in C. albicans cell free extracts. Microsomes isolated from mid-log phase grown yeast were incubated with [^14 C]UDP-Glc, effectors and test compound (fusacandin A, Example 4). The formation of the water-insoluble β-glucan product was measured on a filter after removing the substrate with water washes.

[19] = Minimum inhibitory concentration (MIC) stated with the glucan synthase screen; type: cell-based; conditions: organism not given
[20] = biological target: T2, (1,3)-β-Glucan Synthase (Candida albicans, UniProt O13428); experiment: In vitro inhibition of (1,3)-β-glucan synthase activity, microsomal enzyme preparation; type: biochemical; conditions: C. albicans CCH 442 microsomal enzyme
T2 construct: microsomal enzyme preparation C. albicans CCH 442; endogenous in cells; host or cells: Candida albicans CCH 442, microsomes
T2 sequence (O13428 1-1897): as above
Protocol: The assay was conducted in a final volume of 100 μL of 2.0 mM UDP-[^14 C]-Glc (0.625 mCi/mmol), 1 mM EDTA, 8% (v/v) glycerol, 20 μM GTPgS, 0.5% Brij-35(v/v) or 0.8% BSA, 80 mM Tris/HCl, pH 7.75, and microsomal enzyme preparation C. albicans CCH 442 (100 μg of protein). A detailed description of this assay is described by Frost, D., Brandt, K. Capobioanco, and Goldman, R., Microbiology 140: 2239-2246 (1994) which is incorporated herein by reference.

Compound `CCCCCC=CC=CC(=O)OCC1OC(OC2C(CO)OC(c3c(O)cc(O)cc3CO)C(O)C2OC(=O)C=CC=CCC(O)C=CC=CCCCCC)C(OC2OC(CO)C(O)C(O)C2O)C(O)C1O` (stereo not shown) [Example 4, fusacandin A] has an MIC [1] of 6.25 µg/mL (≈ 6.11 µM), an MIC [2] of 0.78 µg/mL (≈ 0.762 µM) and an MIC [3] of 1.56 µg/mL (≈ 1.52 µM). The MIC [4] was 0.78 µg/mL (≈ 0.762 µM), the MIC [5] was 1.56 µg/mL (≈ 1.52 µM) and the MIC [6] was 6.25 µg/mL (≈ 6.11 µM). The MIC [7] was 12.5 µg/mL (≈ 12.2 µM), the MIC ([8]; Table 6a, Candida albicans CCH 442, 32° C., 20 hours, read-out: MIC) was 6.26 µg/mL (≈ 6.12 µM) and the MIC ([8]; Table 6c, 3rd value column (head printed II), III Candida albicans CCH 442, read-out: MIC II) was 0.78 µg/mL (≈ 0.762 µM). It also gave an MIC [9] of 6.25 µg/mL (≈ 6.11 µM), an MIC [10] of 6.25 µg/mL (≈ 6.11 µM) and an MIC [11] of 3.12 µg/mL (≈ 3.05 µM). The MIC [12] was 3.12 µg/mL (≈ 3.05 µM), the MIC [13] was 12.5 µg/mL (≈ 12.2 µM) and the MIC [14] was 6.25 µg/mL (≈ 6.11 µM). For the same compound, the MIC [15] was 12.5 µg/mL (≈ 12.2 µM), the MIC [16] was 50 µg/mL (≈ 48.9 µM) and the MIC [17] was 0.48 µg/mL (≈ 0.469 µM). It also gave an IC50 [18] of 20 µM, an MIC [19] of 0.5 µg/mL (≈ 0.489 µM) and an IC50 ([20]; 0.5% Brij-35, read-out: IC50 With Brij-35 (converted)) of 6.84 µM. The IC50 ([20]; 0.8% BSA, read-out: IC50 With BSA (converted)) was 111 µM.
